Data on 18 molecules can be found in patent US12018021B2 (UCB Biopharma SRL, priority 2018, dated 2024).

Each structure is given as a SMILES string. pIC50: −log10 of the molar value. Bounds are passed on as bounds.

Chain of IgE-Tb / sFcεRIα-Y131A-AF488 (P01854 whole entry N146Q/N252Q): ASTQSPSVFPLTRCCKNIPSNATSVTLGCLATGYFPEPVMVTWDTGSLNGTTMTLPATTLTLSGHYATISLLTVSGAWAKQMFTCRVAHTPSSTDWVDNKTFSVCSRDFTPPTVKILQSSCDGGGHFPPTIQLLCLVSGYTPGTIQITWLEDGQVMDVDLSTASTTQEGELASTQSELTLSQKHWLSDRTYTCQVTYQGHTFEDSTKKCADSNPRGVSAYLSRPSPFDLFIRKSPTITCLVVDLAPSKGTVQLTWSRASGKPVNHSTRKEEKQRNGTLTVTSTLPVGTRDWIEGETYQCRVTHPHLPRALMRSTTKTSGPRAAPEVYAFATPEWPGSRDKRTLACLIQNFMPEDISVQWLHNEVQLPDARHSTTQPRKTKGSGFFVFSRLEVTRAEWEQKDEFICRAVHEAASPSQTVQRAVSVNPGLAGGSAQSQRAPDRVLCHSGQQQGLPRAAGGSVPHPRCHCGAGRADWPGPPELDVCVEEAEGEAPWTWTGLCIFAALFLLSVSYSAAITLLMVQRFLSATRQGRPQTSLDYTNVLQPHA

The experiment addresses IgE-Tb / sFcεRIα-Y131A-AF488 (Homo sapiens, UniProt P01854, N146Q/N252Q). Kind of experiment: IgE-Tb / sFcεRIα-Y131A-AF488 FRET assay (protocol for examples 234 to 501). The conditions noted are these: examples 234 to 501: compound with IgE-Tb 30 minutes before sFcεRIα-Y131A-AF488, incubated 18 hours at room temperature; read-out: Y131A FRET IC50 range. It is filed as binding. How it is done:
For examples 234 to 501, the assay was conducted according to the following: Each assay reaction was conducted in a volume of 25 μl in a 384-well half-volume plate. 10 point compound serial dilutions (3-fold) were generated in DMSO at a concentration of ×50 that of the final assay concentration (FAC). Compound solutions were then prepared by diluting 10-fold in assay buffer. For the assay, 5l of diluted compound was added to 10 μl of IgE-Tb and incubated for 30 minutes before the addition of 10 μ[…]. FRET reagents FACs were 5 nM IgE-Tb, 25 nM […]. Usually the top FAC of compound in the assay was 10 μM. The final DMSO concentration was 2%. […] The maximum FRET signal (MAX) was measured in wells containing FRET reagents but no compound. The assay was incubated for 18 hours at room temperature, protected from light and evaporation, and with gentle agitation. Measurement of FRET for each well was carried out by exciting at 337 nm and measuring emission at 490/520 nm using a PHERAstar FSX plate reader (BMG Labtech). FRET ratio was calculated as follows: Emission at 520/7Emission at 490×1000. The FRET ratio was used for the data analysis. […] Z' above 0.5 was considered a good assay. Background signal (MIN) was subtracted from all wells. […] Percent inhibition was plotted against compound concentration. IC50 values for each compound were determined using four parameter logistic fit model using the XLFIT5 software package.
The pIC50 is −log10 of the IC50, conventionally taken in molar units. In the case of `Cc1c(Nc2nncn2[C@H]2CCc3sc(NC(=O)C4CC4)c(C(=O)NCC4CC4)c3C2)cccc1S(C)(=N)=O` (mixture of isomers) [Example 235, (5S)-2-cyclopropaneamido-N-(cyclopropylmethyl)-5-[3-({3-[imino(methyl)oxo-lambda6-sulfanyl]-2-methylphenyl}amino)-4H-1,2,4-triazol-4-yl]-4,5,6,7-tetrahydro-1-benzothiophene-3-carboxamide], the pIC50 was greater than 6.00.

For the molecule `CC(=O)N1CCC(C)(Nc2nncn2[C@H]2CCc3sc(NC(=O)C4CC4)c(C(=O)NCC4CC4)c3C2)C1` (mixture of isomers) [Example 238, (5S)-5-{3-[(1-acetyl-3-methylpyrrolidin-3-yl)amino]-4H-1,2,4-triazol-4-yl}-2-cyclopropaneamido-N-(cyclopropylmethyl)-4,5,6,7-tetrahydro-1-benzothiophene-3-carboxamide], the pIC50 was greater than 6.00.

`CS(=N)(=O)c1cccc(Nc2nncn2[C@H]2CCc3sc(NC(=O)C4CC4)c(C(=O)NCC4CC4)c3C2)c1` (mixture of isomers) [Example 252, (5S)-2-(cyclopropanecarbonylamino)-N-(cyclopropylmethyl)-5-[3-[3-(methylsulfonimidoyl)anilino]-1,2,4-triazol-4-yl]-4,5,6,7-tetrahydrobenzothiophene-3-carboxamide]: the pIC50 is greater than 6.00.

Consider `Cc1ccc(C2CC(Nc3nncn3[C@H]3CCc4sc(NC(=O)C5CC5)c(C(=O)NCC5CC5)c4C3)C2)cn1` (mixture of isomers) [Example 275, (5S)-2-(cyclopropanecarbonylamino)-N-(cyclopropylmethyl)-5-[3-[[3-(6-methyl-3-pyridyl)cyclobutyl]amino]-1,2,4-triazol-4-yl]-4,5,6,7-tetrahydrobenzothiophene-3-carboxamide], for which the pIC50 is greater than 6.00.

`Cn1nc(OC(F)F)cc1Nc1nncn1[C@H]1CCc2sc(NC(=O)C3CC3(F)F)c(C(=O)NCC3CC3)c2C1` (mixture of isomers) [Example 344, (5S)—N-(cyclopropylmethyl)-2-[(2,2-difluorocyclopropanecarbonyl)amino]-5-[3-[[5-(difluoromethoxy)-2-methylpyrazol-3-yl]amino]-1,2,4-triazol-4-yl]-4,5,6,7-tetrahydro-1-benzothiophene-3-carboxamide]: the pIC50 is greater than 6.00.

For the molecule `Cn1nc(OC(F)F)cc1Nc1nncn1[C@H]1CCc2sc(NC(=O)[C@H]3C[C@H]3F)c(C(=O)NCC3CC3)c2C1` (mixture of isomers) [Example 348, (5S)—N-(cyclopropylmethyl)-5-[3-[[5-(difluoromethoxy)-2-methylpyrazol-3-yl]amino]-1,2,4-triazol-4-yl]-2-[[(1RS,2RS)-2-fluorocyclopropanecarbonyl]amino]-4,5,6,7-tetrahydro-1-benzothiophene-3-carboxamide], the pIC50 was greater than 6.00.

On to `Cn1nc(C(F)(F)F)cc1Nc1nncn1[C@H]1CCc2sc(NC(=O)[C@H]3C[C@H]3F)c(C(=O)NCC3CC3)c2C1` (mixture of isomers) [Example 355, (5S)—N-(cyclopropylmethyl)-2-[[(1RS,2RS)-2-fluorocyclopropanecarbonyl]amino]-5-[3-[[2-methyl-5-(trifluoromethyl)pyrazol-3-yl]amino]-1,2,4-triazol-4-yl]-4,5,6,7-tetrahydro-1-benzothiophene-3-carboxamide], for which the pIC50 was greater than 6.00.

`Cn1nc(C(F)F)cc1Nc1nncn1[C@H]1CCc2sc(NC(=O)[C@H]3C[C@H]3F)c(C(=O)NCC3CC3)c2C1` (mixture of isomers) [Example 361, (5S)—N-(cyclopropylmethyl)-5-[3-[[5-(difluoromethyl)-2-methylpyrazol-3-yl]amino]-1,2,4-triazol-4-yl]-2-[[(1RS,2RS)-2-fluorocyclopropanecarbonyl]amino]-4,5,6,7-tetrahydro-1-benzothiophene-3-carboxamide]: the negative-log IC50 (pIC50) is greater than 6.00.

For the molecule `Cn1nc(C(F)F)cc1Nc1nncn1[C@H]1CCc2sc(NC(=O)C3CC3(F)F)c(C(=O)NCC3CC3)c2C1` (mixture of isomers) [Example 364, (5S)—N-(cyclopropylmethyl)-2-[(2,2-difluorocyclopropanecarbonyl)amino]-5-[3-[[5-(difluoromethyl)-2-methylpyrazol-3-yl]amino]-1,2,4-triazol-4-yl]-4,5,6,7-tetrahydro-1-benzothiophene-3-carboxamide], the pIC50 is greater than 6.00.

With `CC1CC1C(=O)Nc1sc2c(c1C(=O)NCC1CC1)C[C@@H](n1cnnc1Nc1cc(C(F)F)nn1C)CC2` (mixture of isomers) [Example 369, (5S)—N-(cyclopropylmethyl)-5-[3-[[5-(difluoromethyl)-2-methylpyrazol-3-yl]amino]-1,2,4-triazol-4-yl]-2-[(2-methylcyclopropanecarbonyl)amino]-4,5,6,7-tetrahydro-1-benzothiophene-3-carboxamide], the negative-log IC50 (pIC50) is greater than 6.00.

Turning to `Cn1nc(C(F)F)cc1Nc1nncn1[C@H]1CCc2sc(NC(=O)C3CC3)c(C(=O)NCC3CC3(F)F)c2C1` (mixture of isomers) [Example 381, (5S)-2-(cyclopropanecarbonylamino)-N-[(2,2-difluorocyclopropyl)methyl]-5-[3-[[5-(difluoromethyl)-2-methylpyrazol-3-yl]amino]-1,2,4-triazol-4-yl]-4,5,6,7-tetrahydro-1-benzothiophene-3-carboxamide], the negative logarithm of the IC50 (pIC50) was greater than 6.00.

Consider `Cn1nc(C(F)F)cc1Nc1nncn1[C@H]1CCc2sc(NC(=O)C3CC3)c(C(=O)NCC3CC34CC4)c2C1` (mixture of isomers) [Example 384, (5S)-2-(cyclopropanecarbonylamino)-5-[3-[[5-(difluoromethyl)-2-methylpyrazol-3-yl]amino]-1,2,4-triazol-4-yl]-N-(spiro[2.2]pentan-2-ylmethyl)-4,5,6,7-tetrahydro-1-benzothiophene-3-carboxamide], for which the pIC50 was greater than 6.00.

With `Cn1nc(C(F)(F)F)cc1Nc1nncn1[C@H]1CCc2sc(NC(=O)[C@H]3C[C@H]3F)c(C(=O)NCC3CC3(F)F)c2C1` (mixture of isomers) [Example 396, (5S)—N-[(2,2-difluorocyclopropyl)methyl]-2-[[(1R,2R)-2-fluorocyclopropanecarbonyl]amino]-5-[3-[[2-methyl-5-(trifluoromethyl)pyrazol-3-yl]amino]-1,2,4-triazol-4-yl]-4,5,6,7-tetrahydro-1-benzothiophene-3-carboxamide], the negative logarithm of the IC50 (pIC50) is greater than 6.00.

As for `Cn1nc(C(F)(F)F)cc1Nc1nncn1[C@H]1CCc2sc(NC(=O)[C@H]3C[C@H]3F)c(C(=O)NC[C@H]3C[C@H](F)C3)c2C1` (mixture of isomers) [Example 400, (5S)—N-[trans-(3-fluorocyclobutyl)methyl]-2-[[(1R,2R)-2-fluorocyclopropanecarbonyl]amino]-5-[3-[[2-methyl-5-(trifluoromethyl)pyrazol-3-yl]amino]-1,2,4-triazol-4-yl]-4,5,6,7-tetrahydro-1-benzothiophene-3-carboxamide], the negative logarithm of the IC50 (pIC50) is greater than 6.00.

`Cn1nc(C(F)F)cc1Nc1nncn1[C@H]1CCc2sc(NC(=O)[C@H]3CC34CC4)c(C(=O)NCC3CC3(F)F)c2C1` (mixture of isomers) [Example 408, (5S)—N-[(2,2-Difluorocyclopropyl)methyl]-5-[3-[[5-(difluoromethyl)-2-methylpyrazol-3-yl]amino]-1,2,4-triazol-4-yl]-2-[[(2S)-spiro [2.2]pentane-2-carbonyl]amino]-4,5,6,7-tetrahydro-1-benzothiophene-3-carboxamide]: the negative logarithm of the IC50 (pIC50) was greater than 6.00.

For `Cn1nc(C(F)F)cc1Nc1nncn1[C@H]1CCc2sc(NC(=O)[C@H]3CC34CC4)c(C(=O)NC3CC34CC4)c2C1` (mixture of isomers) [Example 411, (5S)-5-[3-[[5-(Difluoromethyl)-2-methylpyrazol-3-yl]amino]-1,2,4-triazol-4-yl]-2-[[(2S)-spiro[2.2]pentane-2-carbonyl]amino]-N-spiro[2.2]pentan-2-yl-4,5,6,7-tetrahydro-1-benzothiophene-3-carboxamide], the negative logarithm of the IC50 (pIC50) is greater than 6.00.

On to `CCOC(=O)c1c(NC(=O)C2CC23CC3)sc2c1C[C@@H](n1cnnc1Nc1cc(C(F)F)nn1C)CC2` (mixture of isomers) [Example 417a, Ethyl (5S)-5-[3-[[5-(difluoromethyl)-2-methyl-pyrazol-3-yl]amino]-1,2,4-triazol-4-yl]-2-(spiro[2.2]pentane-2-carbonylamino)-4,5,6,7-tetrahydrobenzothiophene-3-carboxylate], for which the pIC50 is greater than 6.00.

With `Cn1nc(OC(F)F)cc1Nc1nncn1[C@H]1CCc2sc(NC(=O)C3CC3)c(C(=O)NC3CC34CC4)c2C1` (mixture of isomers) [Example 452, (5S)-2-(cyclopropanecarbonylamino)-5-[3-[[5-(difluoromethoxy)-2-methylpyrazol-3-yl]amino]-1,2,4-triazol-4-yl]-N-spiro[2.2]pentan-2-yl-4,5,6,7-tetrahydro-1-benzothiophene-3-carboxamide], the pIC50 is greater than 6.00.
